The nature of the series: Log P by HPLC on reversed phase columns (EEC directive 79/831 Annex V.A8; methods [a], [b], [c]). Type of series: physicochemical. Put shortly:
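Log P derived from retention times, interpolated linearly between bracketing straight-chain alkan-2-ones (3–16 carbons) of known Log P. Eluents ran acetonitrile 10% to 95% against water with 0.1% formic acid ([a], acidic), 0.001 M ammonium acetate ([b], neutral) or 0.1% phosphoric acid ([c], acidic); UV read-out.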

We go through 62 compounds from patent US20200031778A1, “NOVEL 5-SUBSTITUTED IMIDAZOLYLMETHYL DERIVATIVES” (Bayer CropScience Aktiengesellschaft, priority 2016, published 2020).

Usually chromatographic logP stands for a lipophilicity value derived from retention on a column. High values mean a more lipophilic compound, low ones a more hydrophilic compound.

Regarding `CC(O)(Cn1cncc1Cl)c1ccc(Oc2ccc(C(F)(F)F)cc2)cc1C(F)(F)F` (centres unmarked) [I-196], the LogP was 3.01^[a].
Regarding `N#Cc1cncn1CC(O)(c1cnc(Cl)cc1Cl)C1(F)CC1` (centres unmarked) [I-526], the LogP is 1.90^[a].
The same measure, in the same setting: the result for `N#Cc1cncn1CC(O)(c1cc(Cl)ccc1Cl)C1(F)CC1` (centres unmarked) [I-623] reads 2.39^[a].
The same measure, in the same setting: the result for `CC(O)(Cn1cncc1Br)c1ccc(Oc2ccc(Cl)cc2)cc1F` (centres unmarked) [I-178] reads 2.44^[a].
On the same count and under the same terms, the result for `N#Cc1cncn1CC(O)(c1cc(Cl)c(F)cc1Cl)C1(Cl)CC1` (centres unmarked) [I-581] reads 2.70^[a].
On to `OC(Cn1cncc1Cl)c1ccc(Oc2ccc(Br)cc2)cc1C(F)(F)F` (centres unmarked) [I-20], for which the LogP is 2.96^[a].
On the same count and under the same terms, the same measure for `CC(O)(Cn1cncc1C#N)c1ccc(Oc2ccc(Br)cc2)cc1Br` (centres unmarked) [I-219]: 3.73^[a]; for `CCOC(Cn1cncc1F)c1cnc(Oc2ccc(Cl)cc2)cc1C(F)(F)F` (centres unmarked) [I-132]: 3.15^[a]; for `C[Si](C)(CCC(O)(Cn1cncc1C#N)C1(Cl)CC1)c1ccccc1` (centres unmarked) [I-667]: 3.70^[a].
In the case of `CCC(=O)OC(Cn1cncc1F)c1ccc(Oc2ccc(Cl)cc2)cc1C(F)(F)F` (centres unmarked) [I-105], the LogP was 3.54^[a].
For the compound `COc1ccc(C(O)(Cn2cncc2C#N)CC(C)(C)C)c(Cl)c1` (centres unmarked) [I-367], the LogP is 3.21^[a].
Take `N#Cc1cncn1CC(O)(CC1CC1)c1cc(F)c(F)c(Cl)c1` (centres unmarked) [I-492]: the LogP is 2.71^[a].
Consider `CC(O)(Cn1cncc1Cl)c1ccc(Oc2ccc(Br)cc2)cc1Cl` (centres unmarked) [I-173], for which the LogP is 2.80^[a].
Consider `CCOC(Cn1cncc1C#N)c1ccc(Oc2ccc(Br)cc2)cc1Br` (centres unmarked) [I-64], for which the LogP is 4.64^[a].
Same read-out and setting: the same measure for `N#Cc1cncn1CC(O)(c1ccc(Br)cc1Cl)C1(Cl)CC1` (centres unmarked) [I-648]: 2.70^[a]; for `OC(Cn1cncc1Cl)c1ccc(Oc2ccc(I)cc2)cc1Br` (centres unmarked) [I-101]: 2.80^[a]; for `N#Cc1cncn1CC(O)(c1cnc(Br)cc1Cl)C1(F)CC1` (centres unmarked) [I-686]: 1.97^[a].
For `CC(C)(C)c1ccc(C(O)(Cn2cncc2C#N)C2(Cl)CC2)c(Cl)c1` (centres unmarked) [I-354], the LogP is 3.39^[a].
On the same count and under the same terms, the same measure for `OC(C#CC1CCCC1)(Cn1cncc1C(F)(F)F)C1(Cl)CC1` (centres unmarked) [I-603]: 3.37^[a]; for `OC(Cn1cncc1Cl)c1ccc(Oc2ccc(Cl)cc2)cc1F` (centres unmarked) [I-32]: 2.39^[a]; for `CCCC(O)(Cn1cncc1C#N)c1ccc(F)cc1C(F)(F)F` (centres unmarked) [I-459]: 2.71^[a].
With `N#Cc1cncn1CC(O)(CC1CC1)c1cc(Cl)ccc1F` (centres unmarked) [I-516], the LogP was 2.43^[a].
For `C[Si](C)(C)C#CC(O)(Cn1cncc1C#N)C1(Cl)CC1` (centres unmarked) [I-318], the LogP is 2.76^[a].
Consider `CC1(C(O)(Cn2cncc2C#N)c2ccc(F)cc2)CC1` (centres unmarked) [I-450], for which the LogP was 2.19^[a].
The same measure, in the same setting: the result for `N#Cc1cncn1CC(O)(c1ccc(C(F)(F)F)cc1Cl)C1(F)CC1` (centres unmarked) [I-383] reads 2.75^[a].
`CC(C)(C)C(O)(Cn1cncc1C#N)c1ccc(Cl)cn1` (centres unmarked) [I-528]: the LogP was 2.73^[a].
Take `N#Cc1cncn1CC(O)(CCC1CCCC1)C1(F)CC1` (centres unmarked) [I-598]: the LogP is 3.00^[a].
The same measure, in the same setting: the same measure for `N#Cc1cncn1CC(O)(c1ccc(Cl)c(F)c1F)C1(Cl)CC1` (centres unmarked) [I-629]: 2.60^[a].
As for `CCC(=O)c1cncn1CC(=O)c1ccc(Oc2ccc(Br)cc2)cc1C(F)(F)F` [IX-139], under “reversed phase HPLC column, method [a]: LC-UV, acidic range, 0.1% formic acid in water and acetonitrile as eluent (linear gradient from 10% to 95% acetonitrile)”, the chromatographic logP came out at 3.71.
As to `N#Cc1cncn1CC(O)(c1ccc(C#CC2CC2)cc1Cl)C1(F)CC1` (centres unmarked) [I-639], the LogP is 3.03^[a].
Still for that read-out and setting: the same measure for `N#Cc1cncn1CC(O)(c1cc(F)cc(Cl)c1F)C1(F)CC1` (centres unmarked) [I-613]: 2.29^[a]; for `N#Cc1cncn1CC(O)(c1ccc(Oc2ccc(Cl)cc2)cc1Cl)C1(F)CC1` (centres unmarked) [I-390]: 3.64^[a]; for `N#Cc1cncn1CC(O)c1ccccc1F` (centres unmarked) [I-139]: 1.31^[a].
On the same count and under the same terms, the result for `OC(Cn1cncc1F)c1ccc(Oc2ccc(Cl)cc2)cc1Cl` (centres unmarked) [I-46] reads 2.28^[a]; that for `CC(O)(Cn1cncc1F)c1cnc(Oc2ccc(C(F)F)cc2)cc1C(F)(F)F` (centres unmarked) [I-230], 2.17^[a].
In the case of `N#Cc1cncn1CC(O)c1ccc(Oc2ccc(Cl)nc2)cc1Cl` (centres unmarked) [I-43], the LogP was 2.37^[a].
Same read-out and setting: the result for `N#Cc1cncn1CC(O)(c1cc(Br)c(F)cc1F)C1(Cl)CC1` (centres unmarked) [I-582] reads 2.66^[a].
Same read-out and setting: the same measure for `N#Cc1cncn1CC(O)(c1ccc(C2CC2)cc1Cl)C1(F)CC1` (centres unmarked) [I-392]: 2.74^[a].
Still for that read-out and setting: the result for `N#Cc1cncn1CC(O)(c1ccc(C(F)(F)F)cc1Cl)C1(Cl)CC1` (centres unmarked) [I-264] reads 2.80^[a]; that for `C[Si](C)(C)C=CC(O)(Cn1cncc1C(F)(F)F)C1(Cl)CC1` (centres unmarked) [I-690], 3.85^[a]; that for `OC(Cn1cncc1Cl)c1ccc(Oc2ccc(Br)cc2)cc1Br` (centres unmarked) [I-45], 2.71^[a].
On to `CC(C)(C)C#Cc1ccc(C(O)(Cn2cncc2C#N)C2(F)CC2)c(Cl)c1` (centres unmarked) [I-642], for which the LogP was 3.83^[a].
On the same count and under the same terms, the same measure for `CCCC(O)(Cn1cncc1C#N)c1ccc(F)cc1` (centres unmarked) [I-378]: 2.21^[a]; for `N#Cc1cncn1CC(O)(c1ccc(C#CC2CC2)cc1Cl)C1(Cl)CC1` (centres unmarked) [I-361]: 3.25^[a]; for `C[Si](C)(C)CC(O)(Cn1cncc1C#N)c1ccccc1F` (centres unmarked) [I-271]: 3.17^[a].
With `N#Cc1cncn1CC(O)(c1cc(F)c(Br)cc1Cl)C1(F)CC1` (centres unmarked) [I-682], the LogP was 2.63^[a].
`OC(Cn1cncc1F)(c1ccc(Br)cc1Cl)C1(F)CC1` (centres unmarked) [I-430]: the LogP was 1.76^[a].
On to `N#Cc1cncn1CC(O)(c1ccc(F)c(F)c1Cl)C1(F)CC1` (centres unmarked) [I-636], for which the LogP is 2.25^[a].
As to `N#CCOC(Cn1cncc1C#N)c1ccc(Oc2ccc(Br)cc2)cc1C(F)(F)F` (centres unmarked) [I-87], the LogP was 3.73^[a].
For `OC(Cn1cncc1Cl)c1ccc(Oc2ccc(OC(F)(F)F)cc2)cc1Cl` (centres unmarked) [I-04], the LogP was 2.82^[a].
The same measure, in the same setting: the result for `N#Cc1cncn1CC(O)(C#CCC1CCCCC1)CC1CC1` (centres unmarked) [I-428] reads 3.29^[a]; that for `N#Cc1cncn1CC(O)(c1ccc(Cl)nc1F)C1(Cl)CC1` (centres unmarked) [I-554], 2.15^[a].
Same read-out and setting: the same measure for `CC(O)(Cn1cncc1C#N)c1ccc(Oc2ccc(C(F)(F)F)nc2)nc1C(F)(F)F` (centres unmarked) [I-294]: 2.76^[a]; for `N#Cc1cncn1CC(O)(c1c(F)ccc(F)c1F)C1(F)CC1` (centres unmarked) [I-590]: 2.07^[a]; for `N#Cc1cncn1CC(O)(c1ccc(Cl)cc1Br)C1(Cl)CC1` (centres unmarked) [I-384]: 2.78^[a].
The same measure, in the same setting: the result for `CC(O)(Cn1cncc1C#N)c1ccc(Oc2ccc(Cl)cc2)cc1Cl` (centres unmarked) [I-182] reads 3.51^[a]; that for `C[Si](C)(C)CC(O)(Cn1cncc1C#N)c1ccc(Cl)cc1` (centres unmarked) [I-224], 3.35^[a].
For `CC(O)(Cn1cncc1F)c1cnc(Oc2ccc(Cl)cc2F)cc1C(F)(F)F` (centres unmarked) [I-229], the LogP was 2.43^[a].
Consider `N#Cc1cncn1CC(O)(c1ccc(Cl)cc1F)C1(F)CC1` (centres unmarked) [I-356], for which the LogP is 2.36^[a].
Same read-out and setting: the same measure for `CC(C)(C)CC(O)(Cn1cncc1C#N)c1ccc(F)cc1F` (centres unmarked) [I-238]: 3.06^[a]; for `COc1ccc(C(O)(CC2CC2)Cn2cncc2C#N)c(Cl)n1` (centres unmarked) [I-548]: 2.10^[a].
Same read-out and setting: the result for `C=CCOC(Cn1cncc1C#N)c1ccc(Oc2ccc(Br)cc2)cc1C(F)(F)F` (centres unmarked) [I-89] reads 4.69^[a].
